Source: PubChem BioAssay AID2060501 (Molecular Pharmacology Branch, DTP, NCI, 2025)

Test system: 282377-053-R-J1-PDC complex spheroids, viability
Assay: Anticancer human tumor 282377-053-R-J1-PDC patient-derived colon adenocarcinoma cell line growth inhibition [GQUAD]
Conditions: for IC50: curve of first compound; for viability, T/C: stronger effect = lower value; active means viability on the fitted dose curve at most 10% of control; inactive means the rest
Summary of the method: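 Tumor cells were grown as complex spheroids with HUVEC endothelial cells and mesenchymal stem cells as stroma. G-quadruplex stabilizers were combined with targeted agents over half-log dilutions from near the clinical Cmax, or from 10 microM.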

[1] = second compound 0.0316 µM, first compound 0.0316 µM
[2] = second compound 0.0316 µM, first compound 0.1 µM
[3] = second compound 0.0316 µM, first compound 0.316 µM
[4] = second compound 0.0316 µM, first compound 1 µM
[5] = second compound 0.0316 µM, first compound 3.16 µM
[6] = second compound 0.0316 µM, first compound 10 µM
[7] = second compound 0.1 µM, first compound 0.0316 µM
[8] = second compound 0.1 µM, first compound 0.1 µM
[9] = second compound 0.1 µM, first compound 0.316 µM
[10] = second compound 0.1 µM, first compound 1 µM
[11] = second compound 0.1 µM, first compound 3.16 µM
[12] = second compound 0.1 µM, first compound 10 µM
[13] = second compound 0.316 µM, first compound 0.0316 µM
[14] = second compound 0.316 µM, first compound 0.1 µM
[15] = second compound 0.316 µM, first compound 0.316 µM
[16] = second compound 0.316 µM, first compound 1 µM
[17] = second compound 0.316 µM, first compound 3.16 µM
[18] = second compound 0.316 µM, first compound 10 µM
[19] = second compound 1 µM, first compound 0.0316 µM
[20] = second compound 1 µM, first compound 0.1 µM
[21] = second compound 1 µM, first compound 0.316 µM
[22] = second compound 1 µM, first compound 1 µM
[23] = second compound 1 µM, first compound 3.16 µM
[24] = second compound 1 µM, first compound 10 µM
[25] = second compound 3.16 µM, first compound 0.0316 µM
[26] = second compound 3.16 µM, first compound 0.1 µM
[27] = second compound 3.16 µM, first compound 0.316 µM
[28] = second compound 3.16 µM, first compound 1 µM
[29] = second compound 3.16 µM, first compound 3.16 µM
[30] = second compound 3.16 µM, first compound 10 µM
[31] = second compound 10 µM, first compound 0.0316 µM
[32] = second compound 10 µM, first compound 0.1 µM
[33] = second compound 10 µM, first compound 0.316 µM
[34] = second compound 10 µM, first compound 1 µM
[35] = second compound 10 µM, first compound 3.16 µM
[36] = second compound 10 µM, first compound 10 µM
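Further: spheroids exposed to compounds for 7 days before readout.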
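Wherever viability, T/C is given: percent of vehicle DMSO control viability with 100% = untreated-like growth.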

CC(C)n1c(=O)n(C)c2cnc3cc(F)c(-c4ccc(OCCCN5CCCCC5)nc4)cc3c21 + Cc1cnc(CNC(=O)c2c(=O)c3ccc(N4CCCN(C)CC4)nc3n3c2sc2ccccc23)cn1
inactive: viability, T/C [1] 101% | viability, T/C [2] 76.5% | viability, T/C [3] 102% | viability, T/C [4] 76.5% | viability, T/C [5] 94% | viability, T/C [6] 86.5% | viability, T/C [7] 84.7% | viability, T/C [8] 80.2% | viability, T/C [9] 81.3% | viability, T/C [10] 90.2% | viability, T/C [11] 83.7% | viability, T/C [12] 72.6% | viability, T/C [13] 69.2% | viability, T/C [14] 61.9% | viability, T/C [15] 70.9% | viability, T/C [16] 76.2% | viability, T/C [17] 78.5% | viability, T/C [18] 64.2% | viability, T/C [19] 47.4% | viability, T/C [20] 48.3% | viability, T/C [21] 49.9% | viability, T/C [22] 46.6% | viability, T/C [23] 56.8% | viability, T/C [24] 67.7% | viability, T/C [25] 48.9% | viability, T/C [26] 45.8% | viability, T/C [27] 51.6% | viability, T/C [28] 43.7% | viability, T/C [29] 53.5% | viability, T/C [30] 45.9% | viability, T/C [31] 44.6% | viability, T/C [32] 33.5% | viability, T/C [33] 39.9% | viability, T/C [34] 45% | viability, T/C [35] 40.6% | viability, T/C [36] 23.5%
> 10000 nM: IC50 (second compound 0.0316 µM) | IC50 (second compound 0.1 µM) | IC50 (second compound 0.316 µM)
< 31.6 nM: IC50 (second compound 1 µM) | IC50 (second compound 3.16 µM) | IC50 (second compound 10 µM)

CC1COCCN1c1cc(C2(O)CC3CCC(C2)O3)c2cnn(-c3ccn[nH]3)c2n1 (stereo not drawn) + Cc1cnc(CNC(=O)c2c(=O)c3ccc(N4CCCN(C)CC4)nc3n3c2sc2ccccc23)cn1
73.9 nM: IC50 (second compound 0.1 µM)
inactive: viability, T/C [1] 96.4% | viability, T/C [2] 49.5% | viability, T/C [3] 39.7% | viability, T/C [4] 24.6% | viability, T/C [5] 20.5% | viability, T/C [6] 12.6% | viability, T/C [7] 71.9% | viability, T/C [8] 41.3% | viability, T/C [9] 27.6% | viability, T/C [10] 26.8% | viability, T/C [11] 21.8% | viability, T/C [12] 15.1% | viability, T/C [13] 50.1% | viability, T/C [14] 34.8% | viability, T/C [15] 28.8% | viability, T/C [16] 22.9% | viability, T/C [17] 17.7% | viability, T/C [18] 15% | viability, T/C [19] 42% | viability, T/C [20] 25.9% | viability, T/C [21] 28.7% | viability, T/C [22] 23.1% | viability, T/C [23] 21.8% | viability, T/C [24] 14.3% | viability, T/C [25] 33.6% | viability, T/C [26] 23.4% | viability, T/C [27] 23.8% | viability, T/C [28] 21.7% | viability, T/C [29] 18.6% | viability, T/C [30] 10.6% | viability, T/C [31] 32.8% | viability, T/C [32] 20.1% | viability, T/C [33] 22.2% | viability, T/C [34] 18% | viability, T/C [35] 17%
active: viability, T/C [36] 0.6%
134 nM: IC50 (second compound 0.0316 µM)
< 31.6 nM: IC50 (second compound 0.316 µM) | IC50 (second compound 1 µM) | IC50 (second compound 3.16 µM) | IC50 (second compound 10 µM)

Cn1ncnc1[C@H]1c2n[nH]c(=O)c3cc(F)cc(c23)N[C@@H]1c1ccc(F)cc1 + Cc1cnc(CNC(=O)c2c(=O)c3ccc(N4CCCN(C)CC4)nc3n3c2sc2ccccc23)cn1
285 nM: IC50 (second compound 1 µM)
32.7 nM: IC50 (second compound 3.16 µM)
> 316 nM: IC50 (second compound 0.0316 µM) | IC50 (second compound 0.1 µM) | IC50 (second compound 0.316 µM)
< 0.999 nM: IC50 (second compound 10 µM)
inactive: viability, T/C (second compound 0.0316 µM, first compound 0.000999 µM) 111% | viability, T/C (second compound 0.0316 µM, first compound 0.00316 µM) 87.7% | viability, T/C (second compound 0.0316 µM, first compound 0.00999 µM) 104% | viability, T/C [1] 107% | viability, T/C (second compound 0.0316 µM, first compound 0.0999 µM) 95.9% | viability, T/C [3] 102% | viability, T/C (second compound 0.1 µM, first compound 0.000999 µM) 109% | viability, T/C (second compound 0.1 µM, first compound 0.00316 µM) 101% | viability, T/C (second compound 0.1 µM, first compound 0.00999 µM) 98.7% | viability, T/C [7] 94% | viability, T/C (second compound 0.1 µM, first compound 0.0999 µM) 115% | viability, T/C [9] 116% | viability, T/C (second compound 0.316 µM, first compound 0.000999 µM) 86.1% | viability, T/C (second compound 0.316 µM, first compound 0.00316 µM) 84.1% | viability, T/C (second compound 0.316 µM, first compound 0.00999 µM) 88.4% | viability, T/C [13] 93.2% | viability, T/C (second compound 0.316 µM, first compound 0.0999 µM) 79% | viability, T/C [15] 71.9% | viability, T/C (second compound 1 µM, first compound 0.000999 µM) 65.7% | viability, T/C (second compound 1 µM, first compound 0.00316 µM) 66.1% | viability, T/C (second compound 1 µM, first compound 0.00999 µM) 52.5% | viability, T/C [19] 62.5% | viability, T/C (second compound 1 µM, first compound 0.0999 µM) 51.5% | viability, T/C [21] 49.4% | viability, T/C (second compound 3.16 µM, first compound 0.000999 µM) 56.6% | viability, T/C (second compound 3.16 µM, first compound 0.00316 µM) 47.2% | viability, T/C (second compound 3.16 µM, first compound 0.00999 µM) 51.5% | viability, T/C [25] 49.5% | viability, T/C (second compound 3.16 µM, first compound 0.0999 µM) 52.3% | viability, T/C [27] 46.2% | viability, T/C (second compound 10 µM, first compound 0.000999 µM) 43.3% | viability, T/C (second compound 10 µM, first compound 0.00316 µM) 44.1% | viability, T/C (second compound 10 µM, first compound 0.00999 µM) 52.4% | viability, T/C [31] 45.1% | viability, T/C (second compound 10 µM, first compound 0.0999 µM) 51% | viability, T/C [33] 46.7%

O=C(c1cc(Cc2n[nH]c(=O)c3ccccc23)ccc1F)N1CCN(C(=O)C2CC2)CC1 + Cc1cnc(CNC(=O)c2c(=O)c3ccc(N4CCCN(C)CC4)nc3n3c2sc2ccccc23)cn1
2430 nM: IC50 (second compound 3.16 µM)
70.1 nM: IC50 (second compound 10 µM)
> 10000 nM: IC50 (second compound 0.0316 µM) | IC50 (second compound 0.1 µM) | IC50 (second compound 0.316 µM) | IC50 (second compound 1 µM)
inactive: viability, T/C [1] 103% | viability, T/C [2] 100% | viability, T/C [3] 140% | viability, T/C [4] 92.9% | viability, T/C [5] 90.6% | viability, T/C [6] 89.2% | viability, T/C [7] 106% | viability, T/C [8] 121% | viability, T/C [9] 93% | viability, T/C [10] 84.9% | viability, T/C [11] 110% | viability, T/C [12] 92.3% | viability, T/C [13] 84.2% | viability, T/C [14] 91.9% | viability, T/C [15] 74.6% | viability, T/C [16] 89.8% | viability, T/C [17] 95.6% | viability, T/C [18] 73.3% | viability, T/C [19] 61.2% | viability, T/C [20] 55.8% | viability, T/C [21] 54.7% | viability, T/C [22] 61% | viability, T/C [23] 60.8% | viability, T/C [24] 54% | viability, T/C [25] 60.8% | viability, T/C [26] 51.1% | viability, T/C [27] 59.2% | viability, T/C [28] 52.3% | viability, T/C [29] 46.2% | viability, T/C [30] 48.6% | viability, T/C [31] 52.9% | viability, T/C [32] 47.4% | viability, T/C [33] 47.7% | viability, T/C [34] 48.9% | viability, T/C [35] 40.1% | viability, T/C [36] 46.6%
